Assay results published in PubChem BioAssay (NCI).
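Five concentrations, 48 hours, 96-well plates. At the TGI there is no net growth.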

Tests used:
Experiment in all cases: inhibition of tumour cell growth, NCI panel, 48 h
M14 melanoma = test system: M14 melanoma
PC-3 prostate = test system: PC-3 prostate
SK-MEL-5 melanoma = test system: SK-MEL-5 melanoma
EKVX NSCLC = test system: EKVX NSCLC
NCI-H522 lung = test system: NCI-H522 lung
SK-OV-3 ovarian = test system: SK-OV-3 ovarian
KM12 colon = test system: KM12 colon
BT-549 breast = test system: BT-549 breast
RXF 393 renal = test system: RXF 393 renal
UACC-257 melanoma = test system: UACC-257 melanoma
LOX IMVI melanoma = test system: LOX IMVI melanoma
OVCAR-4 ovarian = test system: OVCAR-4 ovarian
NCI/ADR-RES ovarian = test system: NCI/ADR-RES ovarian
A498 renal = test system: A498 renal
SK-MEL-2 melanoma = test system: SK-MEL-2 melanoma
A549 NSCLC = test system: A549 NSCLC
TK-10 renal = test system: TK-10 renal
HOP-92 NSCLC = test system: HOP-92 NSCLC
SR leukemia = test system: SR leukemia
SNB-75 CNS = test system: SNB-75 CNS
OVCAR-3 ovarian = test system: OVCAR-3 ovarian
U251 CNS = test system: U251 CNS
NCI-H23 lung = test system: NCI-H23 lung
COLO 205 colon = test system: COLO 205 colon
DU-145 prostate = test system: DU-145 prostate
786-0 renal = test system: 786-0 renal
SNB-19 CNS = test system: SNB-19 CNS
SK-MEL-28 melanoma = test system: SK-MEL-28 melanoma
MOLT-4 leukemia = test system: MOLT-4 leukemia
CAKI-1 renal = test system: CAKI-1 renal
SW-620 colon = test system: SW-620 colon
UACC-62 melanoma = test system: UACC-62 melanoma
MDA-N = test system: MDA-N
MDA-MB-231 breast = test system: MDA-MB-231 breast
T-47D breast = test system: T-47D breast
MALME-3M melanoma = test system: MALME-3M melanoma
CCRF-CEM leukemia = test system: CCRF-CEM leukemia
IGROV1 ovarian = test system: IGROV1 ovarian
SF-539 CNS = test system: SF-539 CNS
MCF7 breast = test system: MCF7 breast
K-562 leukemia = test system: K-562 leukemia
NCI-H460 lung = test system: NCI-H460 lung
SF-268 CNS = test system: SF-268 CNS
SF-295 CNS = test system: SF-295 CNS
HT29 colon = test system: HT29 colon
MDA-MB-435 = test system: MDA-MB-435
RPMI-8226 leukemia = test system: RPMI-8226 leukemia
HCT-116 colon = test system: HCT-116 colon
HS 578T breast = test system: HS 578T breast
HCT-15 colon = test system: HCT-15 colon
HL-60(TB) leukemia = test system: HL-60(TB) leukemia
HOP-62 NSCLC = test system: HOP-62 NSCLC
OVCAR-5 ovarian = test system: OVCAR-5 ovarian
UO-31 renal = test system: UO-31 renal
ACHN renal = test system: ACHN renal
OVCAR-8 ovarian = test system: OVCAR-8 ovarian
SN12C renal = test system: SN12C renal
HCC-2998 colon = test system: HCC-2998 colon
NCI-H226 lung = test system: NCI-H226 lung

Measured: TGI

O=c1[nH]c(=S)[nH]cc1CN1CCOCC1
not listed: NCI-H226 lung
> 100 µM: all other assays above

CCCc1nnc2sc(COc3ccc(OCc4nn5c(CCC)nnc5s4)c(Cl)c3)nn12
55.3 µM: MCF7 breast
51.1 µM: UACC-257 melanoma
78.1 µM: NCI-H460 lung
59.1 µM: ACHN renal
39.6 µM: T-47D breast
59.4 µM: UACC-62 melanoma
59 µM: MDA-MB-435
93.5 µM: TK-10 renal
21.2 µM: SK-MEL-5 melanoma
80.6 µM: HOP-92 NSCLC
74.5 µM: A498 renal
74.6 µM: OVCAR-4 ovarian
64.1 µM: SR leukemia | HCC-2998 colon
73.7 µM: SNB-75 CNS
73 µM: M14 melanoma
45.4 µM: MDA-N
48.1 µM: EKVX NSCLC
98.9 µM: HT29 colon
31.8 µM: UO-31 renal
40.9 µM: HL-60(TB) leukemia
60 µM: CAKI-1 renal
not listed: CCRF-CEM leukemia
> 100 µM: all other assays above

Clc1ccc(OCC2NC3CCC2CC3)cn1 (centres undefined)
77.1 µM: SNB-19 CNS
33.4 µM: LOX IMVI melanoma | SK-MEL-2 melanoma
34.8 µM: MCF7 breast
33.5 µM: MDA-N
77 µM: CCRF-CEM leukemia
57.1 µM: SW-620 colon
33.3 µM: HT29 colon
96.6 µM: SN12C renal
68.8 µM: SF-295 CNS
45.5 µM: HCT-15 colon
60.6 µM: EKVX NSCLC
30.7 µM: U251 CNS
43.4 µM: MDA-MB-435
36.5 µM: M14 melanoma
55.1 µM: NCI-H460 lung
78.3 µM: PC-3 prostate
31.8 µM: SK-MEL-5 melanoma
41.4 µM: K-562 leukemia
35.9 µM: HCT-116 colon
32.4 µM: COLO 205 colon
32.5 µM: RPMI-8226 leukemia | HCC-2998 colon
44.6 µM: SR leukemia
38.5 µM: SF-539 CNS
36.7 µM: 786-0 renal
6.06 µM: UO-31 renal
40.1 µM: NCI-H522 lung
47.5 µM: MOLT-4 leukemia
67.1 µM: HOP-62 NSCLC
35.3 µM: KM12 colon
39.6 µM: MALME-3M melanoma
51.9 µM: HL-60(TB) leukemia
47.8 µM: MDA-MB-231 breast
39.3 µM: UACC-62 melanoma
36 µM: UACC-257 melanoma
not listed: A498 renal
> 100 µM: all other assays above

O=c1c2ccccc2nc(-c2cccc([N+](=O)[O-])c2)n1O
> 94.3 µM: OVCAR-3 ovarian
> 87.4 µM: NCI/ADR-RES ovarian
> 88.8 µM: NCI-H522 lung
> 75.1 µM: HOP-92 NSCLC
98.7 µM: PC-3 prostate
> 38.2 µM: CCRF-CEM leukemia
> 85.1 µM: A498 renal
91.1 µM: SK-MEL-2 melanoma
80.8 µM: BT-549 breast
> 33.7 µM: RPMI-8226 leukemia
63.9 µM: OVCAR-8 ovarian
not listed: K-562 leukemia | HL-60(TB) leukemia
> 100 µM: all other assays above

COc1cccc(OC)c1C1ON=C(c2ccccc2)N1C12CC3CC(CC(C3)C1)C2 (centres undefined)
88.4 µM: HOP-92 NSCLC
11.9 µM: RXF 393 renal
4.63 µM: HL-60(TB) leukemia
not listed: OVCAR-4 ovarian | CCRF-CEM leukemia
> 100 µM: all other assays above

Cc1ccc(N)c(S)c1
30.6 µM: SK-MEL-5 melanoma
29.1 µM: DU-145 prostate
49.9 µM: NCI-H460 lung
43.1 µM: TK-10 renal
47.6 µM: SK-MEL-28 melanoma
33.9 µM: T-47D breast
88.1 µM: HCC-2998 colon
40.5 µM: SNB-75 CNS
58.5 µM: HL-60(TB) leukemia
30 µM: LOX IMVI melanoma
30.8 µM: M14 melanoma | RXF 393 renal | OVCAR-8 ovarian
70.8 µM: SK-OV-3 ovarian
54.7 µM: UACC-257 melanoma
> 100 µM: CCRF-CEM leukemia | HS 578T breast
38.7 µM: SW-620 colon
37.9 µM: ACHN renal
36.4 µM: BT-549 breast
38.8 µM: MCF7 breast
44 µM: OVCAR-3 ovarian
7.83 µM: SN12C renal
38.6 µM: A498 renal
47 µM: MOLT-4 leukemia
40.6 µM: A549 NSCLC
26.7 µM: UO-31 renal
28.2 µM: MDA-N
31.5 µM: EKVX NSCLC | SK-MEL-2 melanoma | IGROV1 ovarian
56.8 µM: NCI/ADR-RES ovarian
36.1 µM: MDA-MB-435
28.6 µM: PC-3 prostate
65.1 µM: K-562 leukemia
45.8 µM: SR leukemia
31.3 µM: MDA-MB-231 breast | SF-539 CNS
52.9 µM: COLO 205 colon
30.4 µM: HCT-15 colon
36.3 µM: NCI-H23 lung
85 µM: CAKI-1 renal
29.6 µM: 786-0 renal
28.5 µM: U251 CNS
33.8 µM: HT29 colon
44.4 µM: HOP-62 NSCLC
43.4 µM: SF-295 CNS
42 µM: OVCAR-5 ovarian
49.1 µM: NCI-H226 lung
33.5 µM: NCI-H522 lung
82.6 µM: MALME-3M melanoma
46.2 µM: SF-268 CNS
43.5 µM: OVCAR-4 ovarian
32.7 µM: UACC-62 melanoma
30.2 µM: HOP-92 NSCLC
46.8 µM: HCT-116 colon
36.7 µM: KM12 colon | SNB-19 CNS

Clc1ccc(Cc2nc3ccccc3o2)cc1
91.2 µM: SNB-75 CNS
97.8 µM: RXF 393 renal
not listed: A498 renal
> 100 µM: all other assays above
